Results reported in US9850283B2, “Macrocyclic inhibitors of the PD-1/PD-L1 and CD80(B7-1)/PD-L1 protein/protein interactions” (BRISTOL-MYERS SQUIBB COMPANY, priority 2013, dated 2017).
Like-named read-outs stand apart in the source and are kept apart here. Each block holds one molecule with its values, some of them ahead of it. Starred links: 1 amine or outer side, 2 acyl side, 3 side chain; linkers in the order of their positions; H or OH if unused. Positions of bridges follow the written chain, without caps; N, C: chain ends. Non-standard residues stand in square brackets, D forms with d. Residues, ends and D or L forms follow the SMILES beside them. ξ: configuration not given here. Phe(4-SO2NH2) = N[C@@H](Cc1ccc(S(N)(=O)=O)cc1)C(=O)O; Phe(3,4,5-F3) = N[C@@H](Cc1cc(F)c(F)c(F)c1)C(=O)O; X12 = O=C([C@H](Cc1cc(Cl)c(F)c(Cl)c1)N[*:1])[*:2]; Phe(3,4-(OMe)2) = COc1ccc(C[C@H](N)C(=O)O)cc1OC; Phe(3-CF3) = N[C@@H](Cc1cccc(C(F)(F)F)c1)C(=O)O; Phe(4-NH2) = Nc1ccc(C[C@H](N)C(=O)O)cc1; Bta = N[C@@H](Cc1csc2ccccc12)C(=O)O; Hyp = O=C(O)[C@@H]1C[C@@H](O)CN1; NMeF = CN[C@@H](Cc1ccccc1)C(=O)O; X4 = O=C([C@H]1COCCN1[*:1])[*:2]; dHyp = O=C(O)[C@H]1C[C@H](O)CN1; NMeNle = CCCC[C@H](NC)C(=O)O; NMeM = CN[C@@H](CCSC)C(=O)O; NMeA = CN[C@@H](C)C(=O)O; Orn = NCCC[C@H](N)C(=O)O; Dab = NCC[C@H](N)C(=O)O; ξC = NC(CS)C(=O)O; Sar = CNCC(=O)O

Columns and labels:
Human PD-L1/PD-1 = target: T1, Human PD-L1/PD-1 (Homo sapiens, UniProt Q9NZQ7); assay: HTRF PD-1-Ig/PD-L1-His binding assay (human PD-L1)
T1 construct: made in house; host or cells: HEK293T
In short: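 Interaction of Fc-tagged soluble PD-1 with His-tagged soluble PD-L1 is monitored by time-resolved FRET. Donor is europium cryptate anti-Ig (1 nM final) and acceptor is APC anti-His (20 nM final). Assay buffer is dPBS with 0.1% BSA and 0.05% Tween-20.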

[1] = target: T2, LK35.2-hPD-L1 cells / PE-labeled PD-1-Ig (Homo sapiens, UniProt Q9NZQ7); assay: LK35.2-hPD-L1 cell binding high-content screening assay; format: cell-based
T2 construct: expressed in transfected cells; host or cells: LK35.2 mouse B cell line
In short: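 Readout: high-content imaging of PE-PD-1-Ig bound to LK35.2-hPD-L1 cells. Cells plated overnight (RPMI/10% FCS); compound + 1 nM PE-PD-1-Ig, 1 h, 37 °C; 3× dPBS wash before imaging.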

[2] = cluster symbol, read-out: HTRF IC50 cluster
[3] = cluster symbol, cell line of CBA not given (LK35.2-hPD-L1 or 293T-hPD-L1), read-out: CBA IC50 cluster
[4] = cell binding assay, cell line not given, cluster symbol, read-out: CBA IC50 cluster

T2 sequence (Q9NZQ7 19-290): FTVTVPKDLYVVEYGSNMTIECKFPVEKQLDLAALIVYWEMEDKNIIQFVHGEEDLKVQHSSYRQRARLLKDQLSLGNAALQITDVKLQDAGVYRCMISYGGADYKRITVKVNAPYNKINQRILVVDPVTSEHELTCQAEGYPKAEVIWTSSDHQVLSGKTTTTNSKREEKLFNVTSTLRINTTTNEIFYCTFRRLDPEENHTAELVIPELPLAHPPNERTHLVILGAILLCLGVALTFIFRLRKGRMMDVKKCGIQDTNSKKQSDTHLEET
T1 sequence (Q9NZQ7 with tags, fused parts or gaps): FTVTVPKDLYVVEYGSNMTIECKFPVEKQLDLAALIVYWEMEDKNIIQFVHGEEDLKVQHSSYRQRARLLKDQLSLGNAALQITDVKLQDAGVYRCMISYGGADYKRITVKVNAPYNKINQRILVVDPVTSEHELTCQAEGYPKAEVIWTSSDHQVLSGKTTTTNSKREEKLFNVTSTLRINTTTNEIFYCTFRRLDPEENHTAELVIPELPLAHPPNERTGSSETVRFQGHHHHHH

Compound: CCCC[C@H]1C(=O)N(C)CC(=O)N[C@@H](CC(=O)O)C(=O)N[C@@H](C(C)C)C(=O)N(C)[C@@H](Cc2ccccc2)C(=O)N[C@@H](Cc2ccc(O)cc2)C(=O)N(C)CC(=O)N[C@@H](Cc2c[nH]c3ccccc23)C(=O)N[C@@H](Cc2ccc(O)cc2)C(=O)N[C@@H](CC(C)C)C(=O)N[C@H](C(=O)NCC(N)=O)CSCC(=O)N[C@@H](Cc2ccc(OC)c(OC)c2)C(=O)N(C)[C@@H](Cc2ccccc2)C(=O)N1C [Example 3102] ({CH2CO}-[Phe(3,4-(OMe)2)][NMeF][NMeNle][Sar]DV[NMeF]Y[Sar]WYLCG-NH2; thioether N-13)
IC50 (Human PD-L1/PD-1; [2]): > 30.5 nM
IC50 [1, 3]: > 74.3 nM

Compound: CCCC[C@H]1C(=O)N(C)[C@@H](CCCC)C(=O)N[C@@H](CCCNC(=N)N)C(=O)N[C@H](C(=O)NCC(N)=O)CSCC(=O)N[C@@H](Cc2ccc(S(N)(=O)=O)cc2)C(=O)N(C)[C@@H](C)C(=O)N[C@@H](CC(N)=O)C(=O)N2CCC[C@H]2C(=O)N[C@@H](Cc2cnc[nH]2)C(=O)N[C@@H](CC(C)C)C(=O)N(C)CC(=O)N[C@@H](Cc2c[nH]c3ccccc23)C(=O)N[C@@H](CO)C(=O)N[C@@H](Cc2c[nH]c3ccccc23)C(=O)N1C [Example 1093] ({CH2CO}-[Phe(4-SO2NH2)][NMeA]NPHL[Sar]WSW[NMeNle][NMeNle]RCG-NH2; thioether N-14)
IC50 (Human PD-L1/PD-1; [2]): > 30.5 nM
IC50 [1, 3]: > 74.3 nM

Compound: CCCC[C@H]1C(=O)N(C)CC(=O)N[C@@H](CC(=O)O)C(=O)N[C@@H](C(C)C)C(=O)N(C)[C@@H](Cc2ccccc2)C(=O)N[C@@H](Cc2ccc(O)cc2)C(=O)N(C)CC(=O)N[C@@H](Cc2c[nH]c3ccccc23)C(=O)N[C@@H](Cc2ccc(O)cc2)C(=O)N2CCC[C@@H]2C(=O)N[C@H](C(=O)NCC(N)=O)CSCC(=O)N[C@@H](Cc2ccccc2)C(=O)N(C)[C@@H](Cc2ccccc2)C(=O)N1C [Example 3565] (HELM PEPTIDE1{[O=C(C[*:3])[*:2]].F.[meF].[CCCC[C@@H](C(=O)[*:2])N(C)[*:1]].[Sar].D.V.[meF].Y.[Sar].W.Y.[dP].C.G.[am]}$PEPTIDE1,PEPTIDE1,1:R3-14:R3$$$V2.0)
IC50 (Human PD-L1/PD-1; [2]): > 30.5 nM
IC50 [1, 4]: > 74.3 nM

Compound: CCCC[C@H]1C(=O)N(C)[C@@H](CCCC)C(=O)N[C@@H](C)C(=O)N[C@H](C(=O)NCC(N)=O)CSCC(=O)N[C@@H](Cc2ccc(O)cc2)C(=O)N(C)[C@@H](C)C(=O)N[C@@H](CC(N)=O)C(=O)N2CCC[C@H]2C(=O)N[C@@H](Cc2cnc[nH]2)C(=O)N[C@@H](CC(C)C)C(=O)N2CCC[C@H]2C(=O)N[C@@H](Cc2c[nH]c3ccccc23)C(=O)N[C@@H](Cc2ccc(O)cc2)C(=O)N[C@@H](Cc2csc3ccccc23)C(=O)N1C [Example 1050] ({CH2CO}-Y[NMeA]NPHLPWY[Bta][NMeNle][NMeNle]ACG-NH2; thioether N-14)
IC50 (Human PD-L1/PD-1; [2]): > 30.5 nM
IC50 [1, 3]: 4.78 to 72.9 nM

Compound: CCCC[C@H]1C(=O)N(C)CC(=O)N[C@@H](CC(=O)O)C(=O)N[C@@H](C(C)C)C(=O)N(C)[C@@H](Cc2ccccc2)C(=O)N[C@@H](Cc2ccc(O)cc2)C(=O)N(C)CC(=O)N[C@@H](Cc2cccc(C(F)(F)F)c2)C(=O)N[C@@H](Cc2ccc(O)cc2)C(=O)N[C@@H](CC(C)C)C(=O)N[C@H](C(=O)NCC(N)=O)CSCC(=O)N[C@@H](Cc2ccccc2)C(=O)N(C)[C@@H](Cc2ccccc2)C(=O)N1C [Example 3550] ({CH2CO}-F[NMeF][NMeNle][Sar]DV[NMeF]Y[Sar][Phe(3-CF3)]YLCG-NH2; thioether N-13)
IC50 (Human PD-L1/PD-1; value given instead of cluster, read-out: HTRF IC50 value): 40.9 nM
IC50 ([1]; cell binding assay, cell line not given, value given instead of cluster, read-out: CBA IC50 value): 149 nM

Compound: CCCC[C@H]1C(=O)N(C)CC(=O)N[C@@H](CC(=O)O)C(=O)N[C@@H](C(C)C)C(=O)N(C)[C@@H](Cc2ccccc2)C(=O)N[C@@H](Cc2ccc(N)cc2)C(=O)N(C)CC(=O)N[C@@H](Cc2c[nH]c3ccccc23)C(=O)N[C@@H](Cc2ccc(O)cc2)C(=O)N[C@@H](CC(C)C)C(=O)N[C@H](C(=O)NCC(N)=O)CSCC(=O)N[C@@H](Cc2ccccc2)C(=O)N(C)[C@@H](Cc2ccccc2)C(=O)N1C [Example 3139] ({CH2CO}-F[NMeF][NMeNle][Sar]DV[NMeF][Phe(4-NH2)][Sar]WYLCG-NH2; thioether N-13)
IC50 (Human PD-L1/PD-1; [2]): 6.76 to 30.3 nM
IC50 [1, 3]: 4.78 to 72.9 nM

More lines, now with the values ahead:

IC50 (Human PD-L1/PD-1; [2]): 0.385 to 6.74 nM
IC50 [1, 4]: 0.158 to 4.71 nM
Compound: CCCC[C@H]1C(=O)N2C[C@@H](O)C[C@@H]2C(=O)N[C@@H](CC(N)=O)C(=O)N[C@@H](C(C)C)C(=O)N(C)[C@@H](Cc2ccccc2)C(=O)N[C@@H](CCC(N)=O)C(=O)N2CCOC[C@@H]2C(=O)N[C@@H](Cc2c[nH]c3ccccc23)C(=O)N[C@@H](Cc2ccc(O)cc2)C(=O)N[C@@H](CCCN)C(=O)N[C@H](C(=O)NCC(N)=O)CSCC(=O)N[C@@H](Cc2cc(F)c(F)c(F)c2)C(=O)N(C)[C@@H](Cc2ccccc2)C(=O)N1C [Example 3605] ({CH2CO}-[Phe(3,4,5-F3)][NMeF][NMeNle][dHyp]NV[NMeF]Q[X4]WY[Orn]CG-NH2; thioether N-13)

IC50 (Human PD-L1/PD-1; [2]): 0.385 to 6.74 nM
IC50 [1, 4]: 0.158 to 4.71 nM
Compound: CCCC[C@H]1C(=O)N(C)[C@@H](CCCC)C(=O)N[C@@H](CCCCN)C(=O)N[C@H](C(=O)NCC(N)=O)CSCC(=O)N[C@@H](Cc2ccc(O)cc2)C(=O)N(C)[C@@H](C)C(=O)N[C@@H](CC(N)=O)C(=O)N2CCC[C@H]2C(=O)N[C@@H](Cc2c[nH]cn2)C(=O)N[C@@H](CCC(=O)O)C(=O)N2C[C@H](O)C[C@H]2C(=O)N[C@@H](Cc2c[nH]c3ccccc23)C(=O)N[C@@H](CO)C(=O)N[C@@H](Cc2c[nH]c3ccccc23)C(=O)N1C [Example 5139] ({CH2CO}-Y[NMeA]NPHE[Hyp]WSW[NMeNle][NMeNle]KCG-NH2; thioether N-14)

IC50 (Human PD-L1/PD-1; [2]): 0.385 to 6.74 nM
IC50 [1, 4]: 0.158 to 4.71 nM
Compound: CCCC[C@H]1C(=O)N[C@@H](CCCNC(=N)N)C(=O)NC(C(=O)NCC(N)=O)CSCC(=O)N[C@@H](Cc2ccc(O)cc2)C(=O)N(C)[C@@H](C)C(=O)N[C@@H](CC(N)=O)C(=O)N2CCC[C@H]2C(=O)N[C@@H](Cc2cnc[nH]2)C(=O)N[C@@H](CC(C)C)C(=O)N2C[C@H](O)C[C@H]2C(=O)N[C@@H](Cc2c[nH]c3ccccc23)C(=O)N[C@@H](CO)C(=O)N[C@@H](Cc2csc3ccccc23)C(=O)N(C)[C@@H](CCSC)C(=O)N1C (some centres unmarked) [Example 9025] ({CH2CO}-Y[NMeA]NPHL[Hyp]WS[Bta][NMeM][NMeNle]R[ξC]G-NH2; thioether N-14)

IC50 (Human PD-L1/PD-1; [2]): 6.76 to 30.3 nM
IC50 [1, 4]: 0.158 to 4.71 nM
Compound: CCCC[C@H]1C(=O)N(C)[C@@H](CCCC)C(=O)N[C@@H](C)C(=O)N[C@H](C(=O)NCC(N)=O)CSCC(=O)N[C@@H](Cc2ccc(O)cc2)C(=O)N(C)[C@@H](C)C(=O)N[C@@H](CC(N)=O)C(=O)N2CCC[C@H]2C(=O)N[C@@H](Cc2cnc[nH]2)C(=O)N[C@@H](CCC(N)=O)C(=O)N2C[C@H](O)C[C@H]2C(=O)N[C@@H](Cc2c[nH]c3ccccc23)C(=O)N[C@@H](CCN)C(=O)N[C@@H](Cc2c[nH]c3ccccc23)C(=O)N1C [Example 5038] ({CH2CO}-Y[NMeA]NPHQ[Hyp]W[Dab]W[NMeNle][NMeNle]ACG-NH2; thioether N-14)

IC50 (Human PD-L1/PD-1; [2]): 6.76 to 30.3 nM
IC50 [1, 4]: 4.78 to 72.9 nM
Compound: CCCC[C@H]1C(=O)N(C)[C@@H](CCCC)C(=O)N[C@@H](CCCNC(=N)N)C(=O)N[C@H](C(=O)NCC(N)=O)CSCC(=O)N[C@@H](Cc2ccccc2)C(=O)N(C)[C@@H](C)C(=O)N[C@@H](CC(N)=O)C(=O)N2CCC[C@H]2C(=O)N[C@@H](Cc2cnc[nH]2)C(=O)N[C@@H](CCC(N)=O)C(=O)N(C)CC(=O)N[C@@H](Cc2c[nH]c3ccccc23)C(=O)N[C@@H](CO)C(=O)N[C@@H](Cc2c[nH]c3ccccc23)C(=O)N1C [Example 6006] ({CH2CO}-F[NMeA]NPHQ[Sar]WSW[NMeNle][NMeNle]RCG-NH2; thioether N-14)

IC50 (Human PD-L1/PD-1; [2]): 6.76 to 30.3 nM
IC50 [1, 3]: 4.78 to 72.9 nM
Compound: CCCC[C@H]1C(=O)N(C)CC(=O)N[C@@H](CC(=O)O)C(=O)N[C@@H](C(C)C)C(=O)N(C)[C@@H](Cc2ccccc2)C(=O)N[C@@H](Cc2ccc(O)cc2)C(=O)N(C)CC(=O)N[C@@H](Cc2c[nH]c3ccccc23)C(=O)N[C@@H](Cc2ccc(O)cc2)C(=O)N[C@@H](CC(C)C)C(=O)N[C@H](C(=O)NCC(N)=O)CSCC(=O)N[C@@H](Cc2cc(Cl)c(F)c(Cl)c2)C(=O)N(C)[C@@H](Cc2ccccc2)C(=O)N1C [Example 3185] ({CH2CO}-[X12][NMeF][NMeNle][Sar]DV[NMeF]Y[Sar]WYLCG-NH2; thioether N-13)

IC50 (Human PD-L1/PD-1; [2]): 6.76 to 30.3 nM
IC50 [1, 3]: 0.158 to 4.71 nM
Compound: CCCC[C@H]1C(=O)N2CCC[C@@H]2C(=O)N[C@@H](CC(=O)O)C(=O)N[C@@H](C(C)C)C(=O)N(C)[C@@H](Cc2ccccc2)C(=O)N[C@@H](CCCN)C(=O)N2CCC[C@@H]2C(=O)N[C@@H](Cc2c[nH]c3ccccc23)C(=O)N[C@@H](Cc2ccc(O)cc2)C(=O)N[C@@H](CC(C)C)C(=O)N[C@H](C(=O)NCC(N)=O)CSCC(=O)N[C@@H](Cc2ccccc2)C(=O)N(C)[C@@H](Cc2ccccc2)C(=O)N1C [Example 3188] (HELM PEPTIDE1{[O=C(C[*:3])[*:2]].F.[meF].[CCCC[C@@H](C(=O)[*:2])N(C)[*:1]].[dP].D.V.[meF].[Orn].[dP].W.Y.L.C.G.[am]}$PEPTIDE1,PEPTIDE1,1:R3-14:R3$$$V2.0)
